Results from patent US11090305B2, “Methods and compositions to reduce oxidative stress” (University of Massachusetts, priority 2009, dated 2021).

Experiments:
[1] = system: hypercholesterolemic mice (ApoE^−/−, HCD); assay: Azoxymethane (AOM)-induced colorectal neoplasia; design: species or system mouse; settings: in vivo pretreatment
Description: All mice were purchased from Jackson Laboratories (Bar Harbor, Me.) and were maintained in the mouse barrier facility. Care of mice was in accordance with NIH guidelines and the Institutional Animal Care and Use Committee of the University of Massachusetts Medical School approved all protocols. Mice were kept on a 12 hr day/night schedule and were allowed free access to chow and water. ApoE^−/− and WT mice were fed standard mouse chow (5.4 g fat/100 g diet, 0% cholesterol). HCD mice were fed a diet with 10 g fat/100 g diet, […] (Research Diets, New Brunswick, N.J.). […] Azoxymethane (AOM) was given by intraperitoneal injection (10 mg/Kg weekly for 3 weeks); 1% dextran sodium sulfate was added to the drinking water for the Pt week after AOM treatment. The colon and rectum was removed en bloc from each mouse and the number of polyps was identified using a dissecting microscope. Each polyp was frozen in OCT at −80° C. and cryosections (10 μM) cut. […] (A) Total serum cholesterol measured under fasting conditions (16 hr) was greater in ApoE^−/− and HCD groups than in the WT group. […] Ten weeks later, the incidence and number of polyps were determined in the colon and rectum, and a pathologist blinded to study condition assigned each polyp a histological grade (hyperplasia, grade 1, 2, or 3 adenoma, or carcinoma). […]

[2] = system: db/db MSC; assay: Response of db/db MSC to adipogenic medium (Oil Red O staining); format: cell-based, mouse
Method: Adipocytes were identified by Oil Red O staining. m±sd, n=5, *p<0.05.
Adipocytes were identified by Oil Red O staining. m±sd, n=4, *p<0.05 vs control. […] Endothelial cells were identified by CD31 staining. m±sd, n=4, *p<0.05 vs control, #p<0.05 vs 5 nM.

[3] = system: ApoE^−/−-derived HSCs; assay: HSC transplantation into lethally irradiated WT recipients; format: in vivo, mouse; settings: 12 weeks after transplant; ApoE^−/− donors pretreated 4 weeks
Method: HSC were purified from freshly harvested bone marrow mononuclear cells as c-Kit^+Sca-1^+CD90.1^lowLin^− by FACS sorting. Recipient mice were C57BL/6 (WT) on standard chow. Recipients underwent lethal irradiation (1100 Rads delivered in 2 doses 3 hr apart). Immediately after the 2nd irradiation, recipients were anesthetized (2% isoflurane) and 10^6 HSC/0.1 ml sterile PBS were transplanted via retro-orbital injection. Mice were followed for 12 weeks before study or administration of AOM.
It was next determined the oxidant status of HSCs transplanted into WT mice. To this end, lethally irradiated WT mice were transplanted with HSCs from WT or ApoE^−/− mice, or with HSCs harvested from ApoE^−/− mice pretreated with NAC for 4 weeks. […] Numbers in each representative FACS analysis are the m±sd for that group; n=5; *p<0.05 vs. WT→WT group; †p<0.05 for ApoE+NAC→WT vs. Apoe→WT.

[4] = system: Notch1; assay: Notch1 expression in HSCs and lymphoid progenitors (Example 5); format: in vivo, mouse
Method: (§1) Cells were stained with monoclonal antibodies conjugated to various fluoroprobes. These antibodies included: Notch1, cKit (2B8), Sca-1 (E13-161.7), CD4 (L3T4), CD8 (53-6.72), CD90.1, CD25, CD44, TCRβ, NK1.1, γδTCR, CD45.1, CD45.2. The lineage cocktail consisted of CD4, CD8, B220 (RA3-6B2), TER-119, Mac-1 (MI/70), and Gr-1 (RB6-8C5). All antibodies were purchased from BD Bioscience (San Diego, Calif.). FACS analysis was carried out on a FACS Diva.
The Notch family is an evolutionarily conserved system of receptors and ligands that play a fundamental role in regulating cell-fate decision in many types of stem and progenitor cells, including HSCs. Notch1 plays a critical role in lymphocyte differentiation, wherein expression of Notch1 favors T cell differentiation. To clarify the effects of hypercholesterolemia on the expression Notch family, the expression of Notch family was screened in HSCs isolated from WT and ApoE^−/− mice. The percentage of HSCs expressing of Notch1 was higher in hypercholesterolemic than WT mice, whereas no differences in Notch2, Notch4, or Delta-like-1 were noted among groups (FIG. 47A). FIGS. 47A-47D show notch 1 expression is greater in HSCs from hypercholesterolemic mice. […] (B) Within the HSC population, a higher percentage of long term-HSCs expressed Notch1 than did short term-HSCs. This difference was evident in both WT and ApoE^−/− mice, although the percentage of short term-HSCs expressing Notch1 was twofold higher in ApoE^−/− than WT mice. […] (D) Treatment of ApoE^−/−, but not WT mice with SB203580 reduced the percentage of HSCs expressing Notch1. m±sd, n=5, *p<0.05 vs. WT, †p<0.05 vs. ApoE or HCD, p<0.05 vs. long-term HSCs.

[5] = system: bone marrow mononuclear cell population; assay: Lymphocyte lineage specification: pre-B and pro-T cells in bone marrow; design: species or system mouse; settings: ApoE^−/− mice, in vivo treatment
Method: as §1
Hypercholesterolemia is associated with lymphocytosis, while induction of hypercholesterolemia in monkeys affects the rate of CD11b monocyte differentiation. […] FIGS. 46A-46C show lymphocyte lineage specification is altered in hypercholesterolemic mice. (A) The percentages of pre-B cells and pro-T cells in the bone marrow mononuclear cell population were lower and higher, respectively, in ApoE^−/− than in WT mice. These changes were reversed by in vivo treatment of ApoE mice with NAC. (B) The percentages of pre-B cells and pro-T cells in the bone marrow mononuclear cell population were lower and higher, respectively, in HCD than in WT mice. (C) The percentage of mature B cells was lower and that of mature T cells higher in the peripheral blood mononuclear cell population from ApoE mice than from WT mice. The percentage of NKT cells was also less in ApoE mice.

## CC(=O)N[C@@H](CS)C(=O)O [NAC, N-acetylcysteine]
[1]; ApoE^−/− and HCD mice
  histological severity of AOM-induced colorectal polyps: these effects were reversed by in vivo pretreatment with NAC
[1]; hypercholesterolemic mice
  susceptibility to AOM-induced neoplasia: reduced susceptibility to AOM-induced neoplasia
[2]
  differentiation towards adipocytes: reduced adipogenesis
[3]
  percentage of γδT cells in peripheral blood and NKT cells in thymus and peripheral blood of WT recipients: significantly less in WT recipients transplanted with ApoE^−/−-derived HSCs than WT mice transplanted with WT HSCs, or HSCs harvested from NAC-pretreated ApoE^−/− donor mice
[4]; ApoE^−/− mice, in vivo treatment
  percentages of pre-B cells and pro-T cells expressing Notch1: these effects were reversed by in vivo treatment with NAC
[4]; WT mice
  percentage of HSCs expressing Notch1: no effect was noted in WT mice
[4]; hypercholesterolemic mice (ApoE^−/−, HCD), in vivo treatment
  percentage of HSCs expressing Notch1: significantly reduced the percentage of ApoE^−/− and HCD HSCs expressing Notch1
[5]
  percentages of pre-B cells and pro-T cells in bone marrow: reversed these effects
